From patent US20220073536A1 (Rigel Pharmaceuticals, Inc., priority 2003, published 2022)
Structures can show the parent of a compound that is named as a salt. Each block holds one molecule with its values, some of them ahead of it.

Experiments:
[1] = tested on: cultured human mast cells (CHMC); assay: CHMC low cell density IgE activation: tryptase assay; format: cell-based; settings: IgE activation
In short: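 Tryptase release was read from supernatant with a fluorogenic substrate (30 min, room temperature) after anti-IgE challenge of cultured human mast cells (1000–1500 cells/well, low density) for 30 minutes at 37° C.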

[2] = tested on: cultured human mast cells (CHMC); assay: CHMC low cell density ionomycin activation: tryptase assay; format: cell-based; settings: read-out: LD Tryptase, CHMC, Iono, 3 pt
[3] = Homo sapiens, Mast cell, low cell density CHMC, tryptase, 3 pt, read-out: LD Tryptase, CHMC, IgE, 3 pt
[4] = Homo sapiens, Mast cell, low cell density CHMC, tryptase, 3 pt
[5] = Homo sapiens, Mast cell, low cell density CHMC, tryptase readout, 3 pt, read-out: LD Tryptase, CHMC, IgE, 3 pt
[6] = Homo sapiens, Mast cell, low cell density CHMC, tryptase readout, 3 pt
[7] = low cell density CHMC, tryptase release, 3 point, read-out: LD Tryptase, CHMC, IgE, 3 pt
[8] = low cell density CHMC, tryptase release, 3 point
[9] = low cell density CHMC, tryptase release, 3 pt, read-out: LD Tryptase, CHMC, IgE, 3 pt
[10] = low cell density CHMC, tryptase release, 8 pt, read-out: LD Tryptase, CHMC, IgE, 8 pt
[11] = low cell density CHMC, tryptase release, 3 pt
[12] = Homo sapiens, Mast cell, low cell density, 3 pt, read-out: LD Tryptase, CHMC, IgE, 3 pt
[13] = Homo sapiens, Mast cell, low cell density, 3 pt
[14] = low cell density, 3 pt, read-out: LD Tryptase, CHMC, IgE, 3 pt
[15] = low cell density, 8 pt, read-out: LD Tryptase, CHMC, IgE, 8 pt
[16] = Homo sapiens, Mast cell, low cell density CHMC, tryptase, 8 pt, read-out: LD Tryptase, CHMC, IgE, 8 pt
[17] = Homo sapiens, Mast cell, low cell density, 8 pt, read-out: LD Tryptase, CHMC, IgE, 8 pt

Molecule: 2-Chloro-N4-[3-chloro-4- (N-methylamino)carbonylmethyleneoxyphenyl]-5-fluoro-N4-methyl-4-pyrimidineamine [Compound 661]
IC50 [1, 7]: > 10 µM
IC50 [2, 8]: > 10 µM

Molecule: Fc1cnc(Nc2cccc(-c3cnco3)c2)nc1Nc1ccc2c(c1)NCCO2 [Compound 232, N4-(3,4-Dihydro-2H,4H-benz[1,4]oxazin-6-yl)-5-fluoro-N2-[3-(oxazol-5-yl)phenyl]-2,4-pyrimidinediamine]
IC50 [1, 9]: < 10 µM
IC50 [1, 10]: < 10 µM
IC50 [2, 11]: > 10 µM

Molecule: CNc1ncc(F)c(N(C)c2cc(Cl)c(OC)c(Cl)c2)n1 [Compound 501]
IC50 [1, 12]: > 10 µM
IC50 [2, 13]: > 10 µM

Molecule: CNS(=O)(=O)c1ccc(Nc2ncc(F)c(Nc3cccc(O)c3)n2)cc1OC [Compound 499, 5-Fluoro-N4-(3-hydroxyphenyl)-N2-[3-methoxyphenyl-4-(N-methylamino)sulfonyl]-2,4-pyrimidinediamine]
IC50 [1, 14]: < 10 µM
IC50 [1, 15]: < 10 µM
IC50 ([2]; low cell density, 3 pt): > 10 µM

Molecule: Cc1cc(C)cc(Nc2ncc(F)c(N(C)c3ccc4c(c3)OCCO4)n2)c1 [Compound 387]
IC50 [1, 3]: < 10 µM
IC50 [2, 4]: > 10 µM

Molecule: O=C1COc2ccc(Nc3nc(Nc4cccc(-c5ncco5)c4)ncc3F)cc2N1 [Compound 219]
IC50 ([1]; Homo sapiens, Mast cell, low cell density CHMC, tryptase release, 3 pt, read-out: LD Tryptase, CHMC, IgE, 3 pt): < 10 µM
IC50 ([1]; Homo sapiens, Mast cell, low cell density CHMC, tryptase release, 8 pt, read-out: LD Tryptase, CHMC, IgE, 8 pt): < 10 µM
IC50 ([2]; Homo sapiens, Mast cell, low cell density CHMC, tryptase release, 3 pt): > 10 µM

Molecule: COc1ccc(Nc2nc(Nc3ccc(-c4cnco4)cc3)ncc2F)cc1OC [Compound 422, N4-(3,4-Dimethoxyphenyl)-5-fluoro-N2-[4-(oxazol-5-yl)phenyl]-2,4-pyrimidinediamine]
IC50 [1, 3]: < 10 µM
IC50 [1, 16]: < 10 µM
IC50 [2, 4]: > 10 µM

Molecule: COc1ccc(N(C)c2nc(Nc3ccc(-c4ncco4)cc3)ncc2F)cc1OC [Compound 440, N4-(3,4-Dimethoxyphenyl)-5-fluoro-N4-methyl-N2-[4-(oxazol-2-yl)phenyl]-2,4-pyrimidinediamine]
IC50 [1, 3]: < 10 µM
IC50 [2, 4]: > 10 µM

Molecule: Cn1ncc2ccc(Nc3ncc(F)c(Nc4ccc5c(c4)NC(=O)C(C)(C)O5)n3)cc21 [Compound 993, N4-(2,2-Dimethyl-3-oxo-4H-benz[1,4]oxazin-6-yl)-5-fluoro-N2-(1-methylindazol-6-yl)-2,4-pyrimidinediamine p-Toluenesulfonic Acid Salt]
IC50 [1, 12]: < 10 µM
IC50 [1, 17]: < 10 µM
IC50 [2, 13]: < 10 µM

Molecule: CNC(=O)c1cc(Nc2ncc(F)c(Nc3ccc4c(c3)OCCO4)n2)ccc1Cl [Compound 448]
IC50 [1, 3]: < 10 µM
IC50 [1, 16]: < 10 µM
IC50 [2, 4]: > 10 µM

Molecule: COc1ccc(Nc2ncc(F)c(Nc3ccc4c(c3)OCCO4)n2)c(OC)n1 [Compound 460]
IC50 [1, 12]: < 10 µM
IC50 [2, 13]: > 10 µM

Molecule: CN(c1ccc2c(c1)OCCO2)c1nc(Nc2cccc(-c3cnco3)c2)ncc1F [Compound 411]
IC50 [1, 3]: < 10 µM
IC50 [1, 16]: < 10 µM
IC50 [2, 4]: > 10 µM

Molecule: CNS(=O)(=O)c1ccc(Nc2ncc(F)c(Nc3ccc(Cl)c(C(F)(F)F)c3)n2)cc1OC [Compound 497, N4-(4-Chloro-3-trifluoromethylphenyl)-5-fluoro-N2-[3-methoxyphenyl-4-(methylamino)sulfonyl]-2,4-pyrimidinediamine]
IC50 [1, 14]: < 10 µM
IC50 [1, 15]: < 10 µM
IC50 ([2]; low cell density, 3 pt): > 10 µM

Molecule: CN1CCOc2ccc(Nc3nc(Nc4ccc(-c5ncco5)cc4)ncc3F)cc21 [Compound 243, N4-(2,3-Dihydro-4-methyl-2H-benz[1,4]oxazin-6-yl)-5-fluoro-N2-[4-(oxazol-2-yl)phenyl]-2,4-pyrimidinediamine]
IC50 [1, 9]: < 10 µM
IC50 [1, 10]: < 10 µM
IC50 [2, 11]: > 10 µM

Molecule: CNS(=O)(=O)c1ccc(Nc2ncc(F)c(Nc3ccc4c(c3)NC(=O)C(C)(C)O4)n2)cc1OC [Compound 496, N4-(2,2-Dimethyl-3-oxo-4H-benz[1,4]oxazin-6-yl)-5-fluoro-N2-[3-methoxyphenyl-4-(methylamino)sulfonyl]-2,4-pyrimidinediamine]
IC50 [1, 14]: < 10 µM
IC50 [1, 15]: < 10 µM
IC50 ([2]; low cell density, 3 pt): < 10 µM

Molecule: COc1ccc(Nc2nc(Nc3cccc(-c4ncon4)c3)ncc2F)cc1OC [Compound 513]
IC50 [1, 12]: < 10 µM
IC50 [2, 13]: > 10 µM

Molecule: CNC(=O)c1cc(Nc2ncc(F)c(Nc3ccc(OC)c(OC)c3)n2)ccc1Cl [Compound 449, N2-[4-Chloro-3-(N-methylamino)carbonylphenyl]-N4-(3,4-dimethoxyphenyl)-5-fluoro-2,4-pyrimidinediamine]
IC50 [1, 3]: < 10 µM
IC50 [2, 4]: > 10 µM

Molecule: CC(C)(C)OC(=O)NCC(=O)NCc1ccc(Nc2ncc(F)c(Nc3ccc(Cl)c(Cl)c3)n2)cc1 [Compound 1310, N2-[4-[1-(tert-Butoxycarbonylamino)methylenecarbonylamino]methylphenyl]-N4-(3,4-dichlorophenyl)-5-fluoro-2,4-pyrimidinediamine]
IC50 ([1]; low cell density CHMC, tryptase, 3 pt, read-out: LD Tryptase, CHMC, IgE, 3 pt): < 10 µM
IC50 ([1]; low cell density CHMC, tryptase, 8 pt, read-out: LD Tryptase, CHMC, IgE, 8 pt): < 10 µM
IC50 ([2]; low cell density CHMC, tryptase, 3 pt): < 10 µM

Further lines, results first:

IC50 [1, 3]: > 10 µM
IC50 [2, 4]: > 10 µM
Molecule: CCn1ncc2cc(Nc3ncc(F)c(Nc4ccc(Cl)c(Cl)c4)n3)ccc21 [Compound 695, N4-(3,4-Dichlorophenyl)-N2-(1-ethylindazol-5-yl)-5-fluoro-2,4-pyrimidinediamine]

IC50 [1, 5]: < 10 µM
IC50 [2, 6]: < 10 µM
Molecule: CN1C(=O)C(C)(C)Oc2ccc(N(C)c3nc(Nc4cccc(-c5ncco5)c4)ncc3F)cc21 [Compound 1025, 5-Fluoro-N4-methyl-N2-[3-(oxazol-2-yl)phenyl]-N4-(3-oxo-2,2,4-trimethylbenz[1,4]oxazin-6-yl)-2,4-pyrimidinediamine]

IC50 [1, 3]: > 10 µM
IC50 [2, 4]: > 10 µM
Molecule: Fc1cnc(Nc2cccc(NC3=NCCN3)c2)nc1NC1CCCC1 [Compound 1173, N4-Cyclopentyl-5-fluoro-N2-[3-(N-2-imidazolin-2-yl)aminophenyl]-2,4-pyrimidinediamine]

IC50 [1, 5]: < 10 µM
IC50 [2, 6]: > 10 µM
Molecule: COc1ccc(Nc2ncc(F)c(Nc3cccc(NC4=NCCN4)c3)n2)cc1F [Compound 1094, 5-Fluoro-N2-(3-fluoro-4-methoxyphenyl)-N4-[3-(N-2-imidazolin-2-yl)aminophenyl]-2,4-pyrimidinediamine]

IC50 [1, 3]: < 10 µM
IC50 [2, 4]: < 10 µM
Molecule: CCn1ncc2ccc(Nc3ncc(F)c(Nc4ccc(Cl)c(Cl)c4)n3)cc21 [Compound 699, N4-(3,4-Dichlorophenyl)-N2-(1-ethylindazol-6-yl)-5-fluoro-2,4-pyrimidinediamine]

IC50 [1, 12]: < 10 µM
IC50 [1, 17]: < 10 µM
IC50 [2, 13]: > 10 µM
Molecule: COc1c(C)cc(Nc2ncc(F)c(Nc3ccc4c(n3)NC(=O)C(C)(C)O4)n2)cc1C [Compound 997, N2-(3,5-Dimethyl-4-methoxyphenyl)-N4-(2,2-dimethyl-3-oxo-4H-5-pyrid[1,4]oxazin-6-yl)-5-fluoro-2,4-pyrimidinediamine]

IC50 [1, 7]: < 10 µM
IC50 ([1]; low cell density CHMC, tryptase release, 8 point, read-out: LD Tryptase, CHMC, IgE, 8 pt): < 10 µM
IC50 [2, 8]: > 10 µM
Molecule: COC(=O)Cn1ccc2ccc(Nc3ncc(F)c(Nc4ccc5c(c4)OCCO5)n3)cc21 [Compound 642, N4-(3,4-Ethylenedioxyphenyl)-5-fluoro-N2-[1-(methoxycarbonylmethylene)indol-6-yl]-2,4-pyrimidinediamine]

IC50 [1, 3]: < 10 µM
IC50 [2, 4]: > 10 µM
Molecule: CN1CCN(c2cccc(Nc3ncc(F)c(NC4CCCCC4)n3)c2)CC1 [Compound 1168, N4-Cyclohexyl-5-fluoro-N2-[3-(4-methylpiperazino)phenyl]-2,4-pyrimidinediamine]

IC50 [1, 3]: < 10 µM
IC50 [2, 4]: > 10 µM
Molecule: CCOC(=O)N1CCN(c2ccc(Nc3ncc(F)c(NC4CN(C(=O)OC(C)(C)C)C4)n3)cc2)CC1 [Compound 1122]

IC50 ([1]; Homo sapiens, Mast cell, low cell density CHMC, tryptase release, 3 point, read-out: LD Tryptase, CHMC, IgE, 3 pt): > 10 µM
IC50 ([2]; Homo sapiens, Mast cell, low cell density CHMC, tryptase release, 3 point): > 10 µM
Molecule: COC(=O)c1cc2cc(Nc3ncc(F)c(N(C)c4ccc(OC)c(Cl)c4)n3)ccc2o1 [Compound 585, N4-(3-Chloro-4-methoxyphenyl)-5-fluoro-N2-(2-methoxycarbonylbenzofuran-5-yl)-N4-methyl-2,4-pyrimidinediamine]

IC50 [1, 3]: < 10 µM
IC50 [2, 4]: > 10 µM
Molecule: COc1cc(C(N)=O)c(Nc2ncc(F)c(NC3CCCC3)n2)cc1OCc1ccccc1 [Compound 1171, N2-(2-Aminocarbonyl-5-benzoxy-4-methoxyphenyl)-N4-cyclopentyl-5-fluoro-2,4-pyrimidinediamine]
